Experimental data from US11730720B2, “ALK5 inhibitors” (THERAVANCE BIOPHARMA R&D IP, LLC, priority 2018, dated 2023).

Legend:
[1] = biological target: T1, recombinant human ALK5 (TGF-βR1) protein (Homo sapiens, UniProt P36897); test: Biochemical ALK5 (TGF-βR1) assay to measure pKi (LANCE Ultra ULight kinase assay); conditions: apparent pKi, converted from pIC50 using the Cheng-Prusoff equation
T1 construct: purchased Life Technologies PR9075A
T1 sequence (P36897 34-503): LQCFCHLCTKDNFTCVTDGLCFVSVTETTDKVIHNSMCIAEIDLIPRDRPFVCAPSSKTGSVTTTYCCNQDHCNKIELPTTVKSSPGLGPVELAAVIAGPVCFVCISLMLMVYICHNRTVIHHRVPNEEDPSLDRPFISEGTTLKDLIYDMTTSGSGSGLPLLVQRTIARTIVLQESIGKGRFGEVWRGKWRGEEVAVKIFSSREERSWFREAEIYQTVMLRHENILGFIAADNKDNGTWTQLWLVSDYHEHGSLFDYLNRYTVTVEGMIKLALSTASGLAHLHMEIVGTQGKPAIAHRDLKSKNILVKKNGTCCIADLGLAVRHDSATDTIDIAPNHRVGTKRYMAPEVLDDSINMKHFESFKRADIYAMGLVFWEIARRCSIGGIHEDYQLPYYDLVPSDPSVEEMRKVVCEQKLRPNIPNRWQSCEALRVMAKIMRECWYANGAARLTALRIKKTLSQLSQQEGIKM
Method in brief: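 TR-FRET kinase format: compound dose range 10 μM–25 pM equilibrated 60 min with human ALK5 and ULight-labelled topoisomerase 2α peptide in HEPES/MgCl2 buffer pH 7.5 with DTT. Reaction started with ATP (125 μM stock, 5× final), 60 min at 37° C, stopped with EDTA/Eu-anti-phospho antibody; pKi derived from pIC50 via Cheng-Prusoff.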

[2] = tested on: TGF-β-stimulated SMAD3 phosphorylation in BEAS-2B cells; test: Cellular ALK5 potency assay, inhibition of TGF-β stimulated pSMAD3 formation in BEAS-2B cells; format: cell-based; conditions: Homo sapiens, inhibition of TGF-β (10 ng/mL) stimulated pSMAD3 formation, 1 hour compound incubation, read-out: BEAS2B pIC50 (converted)
Method in brief: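 Phospho-SMAD3 was quantified by AlphaLISA in lysates of human lung epithelial BEAS-2B cells. Compound was added 1 h (37 °C, HEPES/BSA-supplemented HBSS) before a 30 min challenge with 10 ng/mL TGF-β. Values are pIC50 relative to stimulated cells without compound.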

Row | Ki [1] [nM] | SMILES | IC50 [2] [nM]
1 | 3.98 to 31.6 | COCc1cccc(-c2n[nH]cc2-c2ccc3ncc(N4CCN(C(C)C)CC4)cc3n2)c1 [Compound 14-5, 7-(4-isopropylpiperazin-1-yl)-2-[3-[3-(methoxymethyl)phenyl]-1H-pyrazol-4-yl]-1,5-naphthyridine] | 25.1 to 158
2 | 0.0398 to 0.316 | Fc1ccc(Cl)cc1-c1[nH]cnc1-c1ccc2ncc(-c3nc4n(n3)CCNC4)cc2c1 [Compound 17-13, 6-[5-(5-chloro-2-fluoro-phenyl)-1H-imidazol-4-yl]-3-(5,6,7,8-tetrahydro-[1,2,4]triazolo[1,5-a]pyrazin-2-yl)quinoline] | ≤ 20
3 | 3.98 to 31.6 | CC1(C)CCCN1CCNc1cnc2ccc(-c3c[nH]nc3-c3ccc(F)c(F)c3)nc2c1 [Compound 8-2, 6-[3-(3,4-difluorophenyl)-1H-pyrazol-4-yl]-N-[2-(2,2-dimethylpyrrolidin-1-yl)ethyl]-1,5-naphthyridin-3-amine] | 25.1 to 158
4 | 0.0398 to 0.316 | CN(C)C1CCN(c2cnc3ccc(-c4c[nH]nc4-c4cc(Cl)ccc4F)nc3c2)CC1 [Compound 1-45, 1-[6-[3-(5-chloro-2-fluoro-phenyl)-1H-pyrazol-4-yl]-1,5-naphthyridin-3-yl]-N,N-dimethyl-piperidin-4-amine] | ≤ 20
5 | 0.0398 to 0.316 | Cc1oc(=O)oc1CN1CCN(c2cnc3ccc(-c4nc[nH]c4-c4cc(Cl)ccc4F)nc3c2)CC1 [Compound 2-37, 4-[[4-[6-[5-(5-chloro-2-fluoro-phenyl)-1H-imidazol-4-yl]-1,5-naphthyridin-3-yl]piperazin-1-yl]methyl]-5-methyl-1,3-dioxol-2-one] | 200 to 1260
6 | 0.0398 to 0.316 | CN1CCC(Nc2cnc3ccc(-c4c[nH]nc4-c4cc(Cl)ccc4F)nc3c2)CC1 [Compound 1-3, 6-[3-(5-chloro-2-fluoro-phenyl)-1H-pyrazol-4-yl]-N-(1-methyl-4-piperidyl)-1,5-naphthyridine-3-amine] | ≤ 20
7 | 0.0398 to 0.316 | Fc1cc(F)c(-c2n[nH]cc2-c2ccc3ncc(-c4ncn5c4NCC5)cc3n2)cc1Cl [Compound 6-55, 2-[3-(5-chloro-2,4-difluoro-phenyl)-1H-pyrazol-4-yl]-7-(2,3-dihydro-1H-imidazo[1,5-a]imidazol-7-yl)-1,5-naphthyridine] | 25.1 to 158
8 | 0.0398 to 0.316 | Fc1ccc(Cl)cc1-c1[nH]cnc1-c1ccc2ncc(-c3cn[nH]c3)cc2n1 [Compound 2-17, 2-[5-(5-chloro-2-fluoro-phenyl)-1H-imidazol-4-yl]-7-(1H-pyrazol-4-yl)-1,5-naphthyridine] | 25.1 to 158
9 | 0.0398 to 0.316 | NC1CN(c2cnc3ccc(-c4c[nH]nc4-c4cc(Cl)ccc4F)nc3c2)C1 [Compound 1-52, 1-[6-[3-(5-chloro-2-fluoro-phenyl)-1H-pyrazol-4-yl]-1,5-naphthyridin-3-yl]azetidin-3-amine] | ≤ 20
10 | 0.0398 to 0.316 | CNCCn1cc(-c2cnc3ccc(-c4c[nH]nc4-c4cccc(COC)c4)nc3c2)cn1 [Compound 14-8, 2-(4-(6-(3-(3-(methoxymethyl)phenyl)-1H-pyrazol-4-yl)-1,5-naphthyridin-3-yl)-1H-pyrazol-1-yl)-N-methylethan-1-amine] | 25.1 to 158
11 | 3.98 to 31.6 | O=C(O)CC1CNCCN1c1cnc2ccc(-c3nc[nH]c3-c3cc(Cl)ccc3F)nc2c1 (stereo not drawn) [Compound 2-32, 2-[1-[6-[5-(5-chloro-2-fluoro-phenyl)-1H-imidazol-4-yl]-1,5-naphthyridin-3-yl]piperazin-2-yl]acetic acid] | 200 to 1260
12 | 0.0398 to 0.316 | Fc1ccc(Cl)cc1-c1[nH]cnc1-c1ccc2ncc(-c3cn4c(n3)CNCC4)cc2c1 [Compound 17-14, 6-[5-(5-chloro-2-fluoro-phenyl)-1H-imidazol-4-yl]-3-(5,6,7,8-tetrahydroimidazo[1,2-a]pyrazin-2-yl)quinoline] | 25.1 to 158
13 | ≤ 0.0316 | NCCn1cc(-c2cnc3ccc(-c4c[nH]nc4-c4ccc(F)c(F)c4)nc3c2)cn1 [Compound 8-17, 2-[4-[6-[3-(3,4-difluorophenyl)-1H-pyrazol-4-yl]-1,5-naphthyridin-3-yl]pyrazol-1-yl]ethanamine] | ≤ 20
14 | 0.0398 to 0.316 | Fc1ccc(Cl)cc1-c1[nH]cnc1-c1ccc2ncc(-c3cc4n(n3)CCNC4)cc2n1 [Compound 2-21, 2-(5-(5-chloro-2-fluorophenyl)-1H-imidazol-4-yl)-7-(4,5,6,7-tetrahydropyrazolo[1,5-a]pyrazin-2-yl)-1,5-naphthyridine] | 25.1 to 158
15 | 0.0398 to 0.316 | Fc1ccc(Cl)cc1-c1nc2ccccn2c1-c1ccc2ncc(-c3nnn4c3CNCC4)cc2n1 [Compound 3-6, 2-(2-(5-chloro-2-fluorophenyl)imidazo[1,2-a]pyridin-3-yl)-7-(4,5,6,7-tetrahydro-[1,2,3]triazolo[1,5-a]pyrazin-3-yl)-1,5-naphthyridine] | 25.1 to 158
16 | 0.0398 to 0.316 | Fc1cc(F)c(-c2n[nH]cc2-c2ccc3ncc(-c4cn(Cc5c[nH]cn5)nn4)cc3n2)cc1Cl [Compound 6-62, 7-(1-((1H-imidazol-4-yl)methyl)-1H-1,2,3-triazol-4-yl)-2-(3-(5-chloro-2,4-difluorophenyl)-1H-pyrazol-4-yl)-1,5-naphthyridine] | 25.1 to 158
17 | 0.398 to 3.16 | NC1CCN(c2cnc3ccc(-c4c[nH]nc4-c4ccc(F)c(F)c4)nc3c2)C1 (stereo not drawn) [Compound 8-9, 1-[6-[3-(3,4-difluorophenyl)-1H-pyrazol-4-yl]-1,5-naphthyridin-3-yl]pyrrolidin-3-amine] | 25.1 to 158
18 | 0.0398 to 0.316 | CN(C)C1CCN(c2cnc3ccc(-c4nc[nH]c4-c4cc(Cl)ccc4F)cc3c2)C1 (racemic) [Compound 17-5, rac-(3S)-1-[6-[5-(5-chloro-2-fluoro-phenyl)-1H-imidazol-4-yl]-3-quinolyl]-N,N-dimethyl-pyrrolidin-3-amine] | 25.1 to 158
19 | 3.98 to 31.6 | COCc1cccc(-c2n[nH]cc2-c2ccc3ncc(N4CCC(N(C)C)C4)cc3n2)c1 (racemic) [Compound 14-4, rac-(3S)-1-[6-[3-[3-(methoxymethyl)phenyl]-1H-pyrazol-4-yl]-1,5-naphthyridin-3-yl]-N,N-dimethyl-pyrrolidin-3-amine] | 25.1 to 158
20 | 3.98 to 31.6 | COCc1cccc(-c2n[nH]cc2-c2ccc3ncc(N4CCC(N5CCCC5)CC4)cc3n2)c1 [Compound 14-3, 2-[3-[3-(methoxymethyl)phenyl]-1H-pyrazol-4-yl]-7-(4-pyrrolidin-1-yl-1-piperidyl)-1,5-naphthyridine] | 25.1 to 158
21 | 0.0398 to 0.316 | CNC1CCN(c2cnc3ccc(-c4c[nH]nc4-c4cc(Cl)c(F)cc4F)nc3c2)CC1 [Compound 6-23, 1-(6-(3-(5-chloro-2,4-difluorophenyl)-1H-pyrazol-4-yl)-1,5-naphthyridin-3-yl)-N-methylpiperidin-4-amine] | 25.1 to 158
22 | 0.0398 to 0.316 | NCCN1CCN(c2cnc3ccc(-c4c[nH]nc4-c4cc(Cl)ccc4F)nc3c2)CC1 [Compound 1-57, 2-[4-[6-[3-(5-chloro-2-fluoro-phenyl)-1H-pyrazol-4-yl]-1,5-naphthyridin-3-yl]piperazin-1-yl]ethanamine] | 25.1 to 158
23 | 0.0398 to 0.316 | Fc1ccc(Cl)cc1-c1nc2ccccn2c1-c1ccc2ncc(-c3nc4n(n3)CCNC4)cc2n1 [Compound 3-9, 2-[2-(5-chloro-2-fluoro-phenyl)imidazo[1,2-a]pyridin-3-yl]-7-(5,6,7,8-tetrahydro-[1,2,4]triazolo[1,5-a]pyrazin-2-yl)-1,5-naphthyridine] | 25.1 to 158
24 | 0.398 to 3.16 | O=C(O)[C@H]1CN(c2cnc3ccc(-c4c[nH]nc4-c4cc(Cl)ccc4F)nc3c2)CCN1 [Compound 1-130, (2R)-4-[6-[3-(5-chloro-2-fluoro-phenyl)-1H-pyrazol-4-yl]-1,5-naphthyridin-3-yl]piperazine-2-carboxylic acid] | 200 to 1260
25 | 0.0398 to 0.316 | CN(CCN1CCNCC1)c1cnc2ccc(-c3c[nH]nc3-c3cc(Cl)ccc3F)nc2c1 [Compound 1-53, 6-[3-(5-chloro-2-fluoro-phenyl)-1H-pyrazol-4-yl]-N-methyl-N-(2-piperazin-1-ylethyl)-1,5-naphthyridin-3-amine] | 25.1 to 158
26 | 0.0398 to 0.316 | CC1(C)CCCN1CCNc1cnc2ccc(-c3c[nH]nc3-c3cc(Cl)c(F)cc3F)nc2c1 [Compound 6-5, 6-[3-(5-chloro-2,4-difluoro-phenyl)-1H-pyrazol-4-yl]-N-[2-(2,2-dimethylpyrrolidin-1-yl)ethyl]-1,5-naphthyridin-3-amine] | 25.1 to 158

Row | SMILES | Ki [1] [nM] | IC50 [2] [nM]
27 | CCN1CCC(N(C)c2cnc3ccc(-c4c[nH]nc4-c4cc(Cl)ccc4F)nc3c2)CC1 [Compound 1-38, 6-[3-(5-chloro-2-fluoro-phenyl)-1H-pyrazol-4-yl]-N-(1-ethyl-4-piperidyl)-N-methyl-1,5-naphthyridin-3-amine] | 0.398 to 3.16 | 25.1 to 158
